Results reported in patent US11360077B2, “Death receptors as markers for rhTRAIL-sensitivity” (Cleveland State University, priority 2017, dated 2022).
Residues, ends and D or L forms follow the SMILES beside them. *: point of attachment. Cbz = O=C(OCc1ccccc1)*; CH2F = FC*

Key:
Format in all cases: cell-based, human
FLIP [1] = assay: Total FLIP protein (western blot)
Description: Western Blot Analysis. Total cell lysates were prepared using RIPA lysis buffer (Sigma) containing 150 mM sodium chloride, 1.0% Triton X-100, 0.5% sodium deoxycholate, 0.1% sodium dodecyl sulfate (SDS) and 50 mM Tris, pH 8.0 plus a 1× cocktail of protease inhibitors (Protease Inhibitor Cocktail Set I, Calbiochem). Cells were lysed for 30 minutes at 4° C. followed by centrifugation for 10 minutes at 10,000 rpm at 4° C. Protein concentrations were determined using BCA protein assay (Pierce). A 35 μg protein aliquot was mixed with 4× Laemmli's SDS sample buffer (0.02% Bromophenol Blue (BPB), 8% Beta-mercaptoethanol (BME), 8% SDS, 40% glycerol and 250 mM Tris-HCl, pH 6.8). Cell lysates were heated for five minutes at 100° C., resolved by 12% SDS-polyacrylamide gel electrophoresis (SDS-PAGE) and transferred to polyvinylidene fluoride (PVDF) membrane. The membrane was blocked with 5% non-fat milk or 5% BSA for ≥1 hour and incubated with primary antibodies for PARP and caspase 8 (Cell Signaling). After incubation, the membrane was incubated with secondary anti-rabbit or mouse horseradish peroxidase (HRP)-conjugated antibodies (Biorad). Proteins were visualized through development by enhanced chemiluminescence (ECL 2 Western Blotting Substrate, Pierce) and exposure on X-ray film. The blots were reprobed for β-actin to confirm equal protein loading.
(§1) Western Blot Analysis. Total cell lysates were analyzed for levels of PARP, caspase 8, caspase 3, Bid, caspase 9, caspase 6, caspase 7, FLIP, DR4 and DR5 and the cytosolic cellular fraction was analyzed for cytochrome C (Cell Signaling) using previously described western blotting techniques.

[2] = test system: rhTRAIL-resistant malignant melanomas; assay: Western blot of co-treatment with general caspase inhibitor Z-VAD-FMK; details: Z-VAD-FMK added to rhTRAIL plus quercetin
Description: (§2) Western Blot Analysis. Total cell lysates were prepared using RIPA lysis buffer (Sigma) containing 150 mM sodium chloride, 1.0% Triton X-100, 0.5% sodium deoxycholate, 0.1% sodium dodecyl sulfate (SDS) and 50 mM Tris, pH 8.0 plus a 1× cocktail of protease inhibitors (Protease Inhibitor Cocktail Set I, Calbiochem). Cells were lysed for 30 minutes at 4° C. followed by centrifugation for 10 minutes at 10,000 rpm at 4° C. Protein concentrations were determined using BCA protein assay (Pierce). A 35 μg protein aliquot was mixed with 4× Laemmli's SDS sample buffer (0.02% Bromophenol Blue (BPB), 8% Beta-mercaptoethanol (BME), 8% SDS, 40% glycerol and 250 mM Tris-HCl, pH 6.8). Cell lysates were heated for five minutes at 100° C., resolved by 12% SDS-polyacrylamide gel electrophoresis (SDS-PAGE) and transferred to polyvinylidene fluoride (PVDF) membrane. […]
as §1
Post treatment cells were collected and analyzed for induction of apoptosis through Annexin-V and PI staining and western blotting probing for key proteins in the apoptotic pathways (FIG. 4). […]

DR5 [3] = assay: Total DR5 protein (western blot)
Description: as §2, with “membrane. The membrane was blocked with 5% non-fat milk or 5% BSA for ≥1 hour and incubated with primary antibodies for PARP and caspase 8 (Cell Signaling).” for “membrane.”
as §1

DR4 [4] = assay: Total DR4 protein (western blot)
Description: as §2, with “membrane. The membrane was blocked with 5% non-fat milk or 5% BSA for ≥1 hour and incubated with primary antibodies for PARP and caspase 8 (Cell Signaling).” for “membrane.”
as §1

DR5 [5] = assay: DR5 mRNA (reverse transcription-PCR)
Description: (§3) Reverse Transcription-PCR. Total RNA was extracted using TRIzol reagent (Ambion) and treated with DNase according to manufacturer's protocol (Invitrogen Deoxyribonuclease I, Amplification Grade). RT-PCR was performed following the manufacturer's protocol (Invitrogen SuperScript III One-Step RT-PCR System with Platinum® Taq DNA Polymerase). Human DR5 mRNA was amplified using the forward primer 5′-[…]-3′ and the reverse primer 5′-[…]-3′. For DR4, forward primer 5′-GAGCAACGCAGACTCGCT-3′ and the reverse primer 5′-TCACTCCAAGGACACGGC-3′ were used. For FLIP, forward primer 5′-[…]-3′ and the reverse primer 5′-[…]-3′ were used. For β-actin, the forward primer 5′-[…]-3′ and the reverse primer 5′-[…]-3′ were used. cDNA synthesis was performed at 60° C. for 30 minutes using the Applied Biosystems GeneAmp PCR System 9700. The PCR cycling conditions (30 cycles) were as follows: denature for 2 minutes at 94° C., anneal for 30 seconds at 55° C. for FLIP and DR4 and 65° C. for DR5 and β-actin, extend for 1 minute and 30 seconds at 68° C., and execute a final extension for 10 minutes at 68° C. Reaction products were analyzed on 1.2% agarose gels. The bands were visualized by ethidium bromide and an UV.

WM164 [6] = assay: Western blot of apoptotic cascade (PARP, caspases, Bid, cytochrome c); details: WM164, quercetin alone at 25 and 50 μM
Description: as §2, with “6.8).” for “6.8). Cell lysates were heated for five minutes at 100° C., resolved by 12% SDS-polyacrylamide gel electrophoresis (SDS-PAGE) and transferred to polyvinylidene fluoride (PVDF) membrane.”
(§4) Melanoma rhTRAIL-Sensitivity: To test rhTRAIL-sensitivity, malignant melanoma lines were treated with and without 100 ng/ml of rhTRAIL for 72 hours. […] Post-treatment cells were analyzed for induction of apoptosis through FITC-Annexin-V and PI staining followed by FACS analysis (FIGS. 2A & 2B).
(§5) Western Blot Analysis. Total cell lysates were analyzed for levels of PARP, caspase 8, caspase 3, Bid, caspase 9, caspase 6, caspase 7, FLIP, DR4 and DR5 and the cytosolic cellular fraction was analyzed for cytochrome C (Cell Signaling) using previously described western blotting techniques. […]

MeWo [7] = assay: as above; details: quercetin alone at 25 and 50 μM
Description: as §2, with “6.8).” for “6.8). Cell lysates were heated for five minutes at 100° C., resolved by 12% SDS-polyacrylamide gel electrophoresis (SDS-PAGE) and transferred to polyvinylidene fluoride (PVDF) membrane.”
as §4, §5

DR4 [8] = assay: Death receptor membrane expression (anti-DR4-PE staining, FACS)
Description: (§6) Death Receptor Membrane Expression. Untreated and rhTRAIL-treated cells were collected with enzyme-free phosphate-buffered saline (PBS)-based cell dissociation buffer (Gibco Life Technologies) and stained with mouse anti-human DR4 or DR5 conjugated to phycoerythrin (PE) (eBioscience). Briefly, 0.25×10^6 cells were incubated in 100 μl of staining buffer (2% FBS and 0.02% sodium azide in PBS) and 5 μl anti-DR4 or anti-DR5 for one hour on ice in the dark. As a negative control to account for non-specific antibody binding, all four melanoma lines were stained with mouse IgG1κ, the same antibody isotype as DR4 and DR5, under the same conditions. After incubation, cells were washed twice with staining buffer and resuspended in 500 μl of staining buffer and analyzed on BD FACS Canto II using Diva software (BD Bioscience, San Jose, Calif.). Death Receptor Membrane Expression. The cell surface expression of DR4 and DR5 were determined according to previously described methods. For the permeabilization experiments, after the first antibody incubation cells were fixed in 4% paraformaldehyde for 10 minutes at room temperature and permeabilized with 0.1% saponin for 5 minutes at room temperature. Cells were then incubated with anti-IgG1κ, DR4 or DR5 for 30 minutes in the saponin buffer and analyzed by FACS. To calculate the cytoplasmic DR expression, […].

FLIP [9] = assay: FLIP mRNA (reverse transcription-PCR)
Description: as §3

DR5 [10] = assay: Death receptor membrane expression (anti-DR5-PE staining, FACS)
Description: as §6

DR4 [11] = assay: DR4 mRNA (reverse transcription-PCR)
Description: as §3

DR4 [12] = assay: Cytoplasmic DR4 expression (permeabilization, FACS)
Description: Death Receptor Membrane Expression. The cell surface expression of DR4 and DR5 were determined according to previously described methods. For the permeabilization experiments, after the first antibody incubation cells were fixed in 4% paraformaldehyde for 10 minutes at room temperature and permeabilized with 0.1% saponin for 5 minutes at room temperature. Cells were then incubated with anti-IgG1κ, DR4 or DR5 for 30 minutes in the saponin buffer and analyzed by FACS. To calculate the cytoplasmic DR expression, […].

WM164 [13] = assay: Apoptosis assay (FITC-Annexin-V and PI staining, FACS)
Description: (§7) Cell Culture. Cells were incubated in a 90% humidified atmosphere with 5% CO2 at 37° C. Human adult primary epidermal melanocytes (ATCC PCS-200-013) were maintained in Dermal Cell Basal Medium supplemented with an Adult Melanocyte Growth kit (ATCC PCS-200-042) and 1% Antibiotic/Antimycotic Solution. The malignant melanoma cell lines, A375 (ATCC CRL-1619), WM9 and WM164 were maintained in DMEM and MeWo (ATCC HTB-65) was maintained in RPMI, both supplemented with 10% Fetal Bovine Serum (FBS) and 1% Antibiotic/Antimycotic Solution. WM9 and WM164 were a kind gift from Dr. Daniel J. Lindner from the Cleveland Clinic Foundation, Cleveland, Ohio Malignant melanoma lines are derived from patient tumors. A375 was derived from an epithelial skin biopsy. MeWo, WM9 and WM164 are metastatic malignant melanomas isolated from the lymph nodes.
(§8) Apoptosis Assay. Cells were trypsinized, harvested, washed twice with cold PBS and resuspended in 100 μl of Annexin-V binding buffer at a concentration of 1×10^3 cells/μl. According to manufacturer's protocol, cells were incubated with 5 μl of FITC-Annexin-V and propidium iodide (PI) for 15 minutes at room temperature in the dark (FITC-Annexin-V Kit Apoptosis Detection Kit I, BD Pharminogen). Stained cells were analyzed on BD FACS Canto II using Diva software. Single color controls (Annexin-V or PI only) were used to set up compensation and quadrants for FACS.
(§9) Melanoma rhTRAIL-Sensitivity: To test rhTRAIL-sensitivity, malignant melanoma lines were treated with and without 100 ng/ml of rhTRAIL for 72 hours. Prior to treatment, control experiments were done to determine the optimal conditions for rhTRAIL-treatment (data not shown). The treatment of 100 ng/ml for 72 hours was selected to best distinguish between rhTRAIL-sensitive and rhTRAIL-resistant melanomas. Post-treatment cells were analyzed for induction of apoptosis through FITC-Annexin-V and PI staining followed by FACS analysis (FIGS. 2A & 2B). […]

MeWo [14] = assay: as above; details: quercetin alone at 25 and 50 μM
Description: as §7, §8, §9

[15] = MeWo, post-treatment with quercetin
[16] = WM164, post-treatment with quercetin

CC(C)C[C@@H](C=O)NC(=O)[C@H](CC(C)C)NC(=O)[C@H](CC(C)C)NC(=O)OCc1ccccc1 [MG132, reference compound] (Cbz-Leu-Leu-Leu-aldehyde)
effect of proteasome inhibitor on quercetin-mediated FLIP downregulation (total FLIP protein) (FLIP [1]; co-treatment with quercetin): the downregulation of FLIP was prevented

COC(=O)C[C@H](NC(=O)[C@H](C)NC(=O)[C@@H](NC(=O)OCc1ccccc1)C(C)C)C(=O)CF [Z-VAD-FMK] (Cbz-Val-Ala-Asp(OMe)-CH2F)
effect on induction of apoptosis (PARP cleavage, caspase 3 activation) in the co-treatment group [2]: blocked the induction of apoptosis

O=c1c(O)c(-c2ccc(O)c(O)c2)oc2cc(O)cc(O)c12 [quercetin]
total DR5 protein expression (DR5 [3]; [15]): no change
total DR5 protein (DR5 [3]; [16]): dose-dependent upregulation
total DR4 protein expression (DR4 [4]; [15]): no change
total DR4 protein expression (DR4 [4]; [16]): no change
DR5 mRNA (DR5 [5]; [15]): no change
DR5 mRNA (DR5 [5]; [16]): dose-dependent upregulation
PARP cleavage or protein activation (WM164 [6]): did not reveal any PARP cleavage or protein activation
PARP cleavage or activation of pro-apoptotic proteins (MeWo [7]): no PARP cleavage or activation of any pro-apoptotic proteins
DR4 membrane expression, fold increase relative to control (DR4 [8]; MeWo, quercetin 25 μM): over four-fold
DR4 membrane expression, fold increase relative to control (DR4 [8]; MeWo, quercetin 50 μM): over 11 fold
DR4 membrane expression, fold increase relative to control (DR4 [8]; WM164, quercetin 25 μM): nearly five-fold
DR4 membrane expression, fold increase relative to control (DR4 [8]; WM164, quercetin 50 μM): seven-fold
FLIP mRNA transcript signal (FLIP [9]; MeWo, quercetin): no change
FLIP mRNA transcript signal (FLIP [9]; WM164, quercetin): no change
protein expression of FLIP (FLIP [1]; MeWo, quercetin): dose-dependently downregulate
protein expression of FLIP (FLIP [1]; WM164, quercetin): dose-dependently downregulate
DR5 membrane expression upregulation (DR5 [10]; MeWo, quercetin 25 and 50 μM): this did not occur
DR5 membrane expression, fold increase relative to control (DR5 [10]; WM164, quercetin 25 μM): quarter-fold increase
DR5 membrane expression, fold increase relative to control (DR5 [10]; WM164, quercetin 50 μM): half-fold increase
DR4 mRNA message (DR4 [11]; [15]): no change
DR4 mRNA message (DR4 [11]; [16]): no change
cytoplasmic levels of DR4 (DR4 [12]; MeWo, application of quercetin): decreased
cytoplasmic levels of DR4 (DR4 [12]; WM164, application of quercetin): decreased
apoptotic cells (WM164 [13]; WM164, quercetin alone at 25 μM): 10.5±0.7%
apoptotic cells (WM164 [13]; WM164, quercetin alone at 50 μM): 19.1±1.6%
induction of apoptosis compared to control (MeWo [14]): no significant induction of apoptosis
